Reference: patent publication US20160206633A1, “dhS1P AND USE OF SAME AS AN ANTICANCER THERAPEUTIC AND IMMUNOMODULATOR” (Penn State Research Foundation, Inc., priority 2013, published 2016)

Legend:
[1] = test system: murine Panc-02 pancreatic cancer cells; experiment: Injection of BSA-conjugated sphingolipids into mice with subcutaneous Panc-02 tumors; format: in vivo; settings: subcutaneous Panc-02 in C57BL/6J mice; injection every other day, 0.1 mL of 100 μM, BSA carrier
Excerpt: (A) Splenic IMCs (Gr-1+CD11b+, also defined as MDSC: myeloid-derived suppressor cells) were isolated from subcutaneous human MDA-MB-231 breast tumor-bearing athymic nude mice, treated with or without dhS1P (to induce the expansion of CD19+CD45R B220+ cells: B-cells), and adoptively transferred into subcutaneous human MDA-MB-231 breast tumor-bearing athymic nude mice before monitoring tumor growth. ANOVA, **p<0.05 compared to PBS control, n≧6. (B) Splenic IMCs were isolated from orthotopic human BxPC-3 pancreatic tumor-bearing athymic nude mice, treated with or without dhS1P, and adoptively transferred into orthotopic human BxPC-3 pancreatic tumor-bearing athymic nude mice before monitoring survival. Logrank test, *p<0.05, n=5. (C) Tumor growth following BSA (lipid carrier control), sphingosine-1-phosphate (S1P), or dhS1P injection every other day, was monitored in C57BL/6J mice engrafted with subcutaneous murine Panc-02 pancreatic cancer cells. ANOVA, **p<0.05 compared to BSA control, n≧6.
Orthotopic pancreatic cancer and subcutaneous breast cancer tumors were established in athymic nude, NOD.CB17-Prkdcscid/J, BALB/cJ, or C57BL/6J mice as previously described (8, 9), with minor modifications. All cell lines used in animal and cellular studies, prior to any modification, were originally obtained from the American Type Culture Collection (Manassas, Va.). For orthotopic BxPC-3-GFP human pancreatic cancer xenografts, 4-6 week old female athymic mice were fully anesthetized with a mixture of ketamine-HCl (129 mg/kg) and xylazine (4 mg/kg) injected intramuscularly. A small incision was made in the left flank, the peritoneum was dissected and the pancreas exposed. Using a 27-gauge needle, 2.5×10^6 cells, prepared in 0.1 mL of Hank's balanced salt solution, were injected into the pancreas. For experimental lung-metastatic osteosarcoma xenografts, 4-6 week old female athymic nude mice were tail vein-injected with 2.5×10^6 human SAOS-2-LM7 cells. […] Tumor size was measured by caliper measurement. […]

[2] = test system: isolated IMCs (GEMM colonies, multipotent myeloid progenitor cells); experiment: CFU-GEMM colony forming assay of isolated IMCs; format: cell-based, athymic nude mice; settings: 5 μM, GEMM-supportive semi-solid media, 3 weeks of culture
Procedure: (A) Splenic IMCs (Gr-1+CD11b+, also defined as MDSCs: myeloid-derived suppressor cells) were isolated from MDA-MB-231 tumor-bearing athymic nude mice and exposed to BSA, S1P (5 μM), or dhS1P (5 μM). Following 24-hour culture incubation, cells were labeled with specific antibodies and analyzed by multicolor flow cytometry (red: IMCs; blue: possible B-cells). (B) Splenic IMCs were isolated from MDA-MB-231 tumor-bearing athymic nude mice and cultured (5×10^4 cells/mL) in GEMM-supportive semi-solid media with BSA, S1P (5 μM), or dhS1P (5 μM). GEMM colonies (multipotent myeloid progenitor cells) were visualized and counted after 3 weeks of culture. ANOVA, *p<0.01 compared to no treatment or BSA-treatment, ***p<0.001 compared to S1P-treatment, n≧3. (C) Splenic hematopoietic progenitors (Lineage-Sca-1+CD117+) were isolated from MDA-MB-231 tumor-bearing athymic nude mice and exposed to BSA, S1P (5 μM), or dhS1P (5 μM). Following 24-hour culture incubation, cells were labeled with specific antibodies and analyzed by multicolor flow cytometry. […]
Isolated IMCs from the spleens of tumor-bearing athymic nude mice were cultured (5×10^4 cells/mL) in GEMM-supportive complete (mouse) methylcellulose media (R&D Systems, Minneapolis, Minn.), according to the manufacturer's instructions, with BSA, S1P (5 μM), or dhS1P (5 μM). GEMM colonies were visualized and counted after 3 weeks of culture.

[3] = test system: human MDA-MB-231 breast cancer cells; experiment: PhotoImmunoNanoTherapy, subcutaneous MDA-MB-231 breast tumor growth in athymic nude mice; format: in vivo; settings: subcutaneous MDA-MB-231 in athymic nude mice; one injection, NIR laser 24 h later
Excerpt: To evaluate the antitumor efficacy of PhotoImmunoNanoTherapy, two murine models of breast cancer were utilized to study effects in T-cell-competent hosts (murine 410.4 cells in BALB/cJ mice) and T-cell-deficient hosts (human MDA-MB-231 cells in athymic nude mice; murine 410.4 cells in NOD.CB17-Prkdcscid/J mice), in addition to a subcutaneously engrafted model of pancreatic cancer (murine Panc-02 cells in C57BL/6J mice), an orthotopic pancreatic cancer model (human BxPC-3 cells in athymic nude mice), and an experimental model of lung-metastatic osteosarcoma (human SAOS-2-LM7 cells in athymic nude mice). Treatments were initiated one week following tumor establishment and consisted of injections of ICG-CPSNPs or controls followed 24 h later by NIR laser treatment of the tumor location to allow adequate tumor accumulation of PEGylated ICGCPSNPs. […] In the most elaborate study, MDA-MB-231 tumor growth was abrogated in athymic nude mice receiving PEGylated ICG-CPSNPs but not PBS or PEGylated ghost CPSNPs (FIG. 1A). Furthermore, MDA-MB-231 tumor growth was not blocked by non-PEGylated (citrate-terminated) ICG-CPSNPs or free ICG.
Orthotopic pancreatic cancer and subcutaneous breast cancer tumors were established in athymic nude, NOD.CB17-Prkdcscid/J, BALB/cJ, or C57BL/6J mice as previously described (8, 9), with minor modifications. […] Tumor size was measured by caliper measurement. […]

SMILES | Tumor growth [1] | CFU-GEMM colony formation [2] | Tumor growth [3]
CCCCCCCCCCCCC/C=C/[C@@H](O)[C@@H](N)COP(=O)(O)O [S1P, sphingosine-1-phosphate, reference compound] | augmented tumor growth | dramatically augmented | –
CC1(C)C(/C=C/C=C/C=C/C=C2\N(CCCCS(=O)(=O)O)c3ccc4ccccc4c3C2(C)C)=[N+](CCCCS(=O)(=O)[O-])c2ccc3ccccc3c21 [free ICG, indocyanine green] | – | – | not blocked
